Source: paper PMC3664642, “A Peptide against Soluble Guanylyl Cyclase α1: A New Approach to Treating Prostate Cancer” (PLoS ONE, 2013)
Entries after “also recorded” stand apart in the source; their conditions may differ.

Key:
[1] = test system: LNCaP cells; assay: Dependence of cytotoxicity on NO signaling, LNCaP cells (MTT); assay type: cell-based; details: for effect of C-PTIO on cytotoxicity of Peptide A-8R: Fig. S1D
Experimental: (§1) For proliferation, cells were grown in medium containing 2% FBS extracted with dextran-coated charcoal (DCC). 48 hours later, ethanol or 1 nM R1881 was added to the cells followed by peptide treatment. The MTT assay (Sigma) was used as before to determine cell number. For apoptosis, 5000 cells were seeded in 96-well plates and treated with Vehicle (DMSO), Peptide A-8R (25 µM), Etoposide (50 µM) (Sigma) at different time points. The Caspase (3/7) activity was measured using Apo-ONE Homogeneous Caspase-3/7 assay kit (Promega). PARP cleavage was also used to measure apoptosis, and is described below.
(§2) (A) Whole-cell extracts from LNCaP cells treated with Vehicle, Peptide A-8R, or C-8R were subjected to IP using an anti-sGCα1 or anti-sGCβ1 antibody and then probed by Western blotting for sGCα1 (Upper) or sGCβ1 (Lower). Input represents amount of sGCα1 or sGCβ1 found in extracts. (B) LNCaP cells grown in the absence or presence of 1 nM R1881 were treated with Vehicle, 20 µM Peptide A-8R, 20 µM C-8R, or 8-Br-cGMP and monitored for cGMP levels using the cGMP E1A kit (Enzo Life Sciences). (C) LNCaP cells grown in the absence or presence of 8-Br-cGMP were treated with Vehicle, Peptide A-8R, or ODQ and monitored for cell density using the MTT assay. (D) LNCaP cells were treated with Vehicle or different concentrations of Peptide A-8R and C-PTIO and monitored for cell density. Bar graphs represent averages of three independent experiments plus standard deviations. Asterisks indicate statistical significance (P<0.04). (TIF) Click here for additional data file.

[2] = test system: Caspase 3/7 activity in LNCaP cells; assay: Caspase 3/7 assay, LNCaP cells; assay type: cell-based; details: Peptide 10 µM, Etoposide 20 µM, 24 hrs, Fig. 5A
Experimental: as §1
Figure 5 Peptide A-8R induces apoptosis of prostate cancer cells. (A) LNCaP, (B) PC-3, or (C) Cos cells were treated with Vehicle, Peptide A-8R (10 µM), or Etoposide (20 µM) for 0–24 hrs and subjected to a Caspase assay to measure apoptosis. Bar graphs represent averages of three independent experiments plus standard deviations. All activities are relative to the first condition, and this activity was set to 1. Asterisks indicate statistical significance (P<0.005). (D) LNCaP cells were treated with Vehicle, Peptide C-8R, Peptide A-8R, or Etoposide (each drug at 50 µM) for 8 hrs and monitored for apoptosis by measuring PARP cleavage using Western blotting. Note that β-actin was used to control for protein loading.
Supplementary file pone.0064189.s005.tif: Figure S5 ROS generation is not induced by Peptide A-8R in PC-3 cells and Peptide C-8R in LNCaP cells. (A) PC-3 cells were treated with Vehicle or different concentrations of Peptide A-8R or Peptide C-8R, as shown, or (B) LNCaP cells were treated with Vehicle or different concentrations of Peptide A-8R or Peptide C-8R, or H2O2 and monitored for ROS generation after 0–30 (A) or 30 (B) min. (C) LNCaP cells were treated with Vehicle, Peptide C-8R (10 µM), Peptide A-8R (10 µM), or Etoposide (100 µM) for 0–8 hrs and subjected to a Caspase assay to measure apoptosis. Bar graphs represent averages of three independent experiments plus standard deviations. (C) All activities are relative to the first condition, and this activity was set to either 1. Asterisks indicate statistical significance (P<0.006) of all values compared to Vehicle (B) or to 0 hour (C). (TIF) Click here for additional data file.

[3] = test system: LNCaP cells; assay: Proliferation/cytotoxicity, LNCaP cells (MTT); assay type: cell-based; details: PI3K-AKT inhibitor; MTT; Fig. S3A; averages of three independent experiments
Experimental: LNCaP, C81, PC-3 and Cos cells were grown as previously described. CWR-22Rv1 cells were cultured in RMPI-1640 medium with 10% FBS and 50 µg/ml Gentamicin (Gibco). Control siRNA, sGCα1 siRNA and AKT siRNA (Dharmacon) at 50 nM final concentration was transfected into cells using Lipofectamine siMAX (Invitrogen).
as §1
(A) Four peptides were designed targeting sGCα1, with each peptide containing eight arginines at the C-terminus for membrane translocation. (B) LNCaP cells were grown in 10% serum under different concentrations of the four peptides, as shown. Cell number was measured after 0–4 days of incubation. Data points represent averages of three independent experiments plus standard deviations. Asterisks indicate statistical significance (P<0.0002) of Peptide A activity, relative to Vehicle.
Figure 2 Peptide A-8R interacts with sGCα1 in prostate cancer cells. (A) LNCaP cells were treated with 25 µM Biotin-labeled Peptide A-8R for 2 hrs and subjected to immunocytochemistry using anti-sGCα1 or anti-Biotin antibody to measure subcellular co-localization of endogenous sGCα1 and Peptide A-8R. DAPI was used to stain nuclei. (B) LNCaP cytosolic extracts were incubated with Peptide A-8R-Biotin and subjected to purification using streptavidin-agarose. This pull-down experiment was repeated with competing excess amount of unlabeled Peptide C-8R or Peptide A-8R. […] Co-purified Peptide A-8R-FITC was quantified by measuring fluorescence signal emission. […] Cell number was measured after 0–48 hrs of incubation. […]

[4] = test system: DNA damage in C81 cells; assay: Comet assay (DNA damage); assay type: cell-based; details: 5 mM NAC, 2-hour pretreatment; Fig. 4C
Experimental: C81 cells were treated with Peptide A-8R for 1 hour, following a 2-hour pretreatment with 5 mM NAC or Vehicle, and trypsinized, and mixed with Comet LM-Agarose (CometAssay, […]) and transferred to slides. Electrophoresis and Sybr-Green staining was carried out according to manufacturer’s protocol.
(§3) Figure 4 Peptide A-8R kills prostate cancer cells by mediating ROS generation. (A) C81 cells were treated with Vehicle or different µMolar concentrations of Peptide A-8R and without or with 0–5 mM NAC and monitored for ROS generation after 0–30 min as measured by fluorescence intensity (FI). Bar graphs represent averages of three independent experiments plus standard deviations. Note that asterisks on bar graphs found with NAC are compared to equivalent data without NAC. (B) C81 cells were treated with Vehicle or different concentrations of Peptide A-8R, as shown, and 0–5 mM NAC, as shown, and monitored for cell number after 0–6 days of incubation as measured by MTT assay. Data points represent averages of three independent experiments plus standard deviations. Asterisks indicate statistical significance (P<0.04). (C) C81 cells were treated with Vehicle or different concentrations of Peptide A-8R, as shown, and with or without 5 mM NAC, as shown, and monitored DNA damage after 1 hr incubation as measured by Comet assay.

[5] = test system: C81 cells; assay: DAPI DNA staining, C81 cells; assay type: cell-based; details: 5 mM NAC, 2 hrs, Fig. S6
Experimental: C81 cells were first treated with or without 5 mM NAC for 2 hrs and then Vehicle or different concentrations of Peptide A-8R, as shown, for 1 hr and stained with DAPI. Phase contrast images are shown. (TIF) Click here for additional data file.

[6] = test system: C81 cells; assay: NAC rescue of proliferation of Peptide A-8R-treated cells (MTT); assay type: cell-based; details: for NAC rescue of proliferation: C81, NAC 1 or 5 mM, 2 h pretreatment, 0–6 days
Experimental: as §1
Intracellular ROS levels were evaluated using the fluorescent probe 5-(and-6)-chloromethyl-2′,7′-dichlorodihydrofluorescein diacetate (CM-H2DCFDA) (Invitrogen). After treatments with Peptide A-8R, C81 cells were loaded with 20 µM CM-H2DCFDA and incubated at 37°C for 30 min in the dark. Cells were then washed with PBS and fluorescence was measured at the excitation and emission wavelengths of 490 and 535 nm, respectively, using a multi-well fluorescence plate reader. For NAC (N-acetyl cysteine) (Sigma) rescue experiment, cells were pretreated with 1 or 5 mM NAC for 2 hours before adding Peptide A-8R.
as §3

[7] = test system: sGC; assay: cGMP levels in LNCaP cells (ELISA); assay type: cell-based; details: 1 nM R1881 absent or present, 20 µM peptide, cGMP EIA kit, Fig. S1B
Experimental: as §2

[8] = test system: tumor cell; details: ref [16], [17]; cited from earlier work
From the text: In view of the rapid cytotoxicity induced by Peptide A (data not shown), we examined the possibility that ROS was involved.

Compound: CC1(C)N([O])C(c2ccc(C(=O)O)cc2)=[N+]([O-])C1(C)C [C-PTIO]
- effect of C-PTIO on cytotoxicity of Peptide A-8R ([1]; Peptide A-8R at 50 µM): interestingly not 50 µM
- effect of C-PTIO on cytotoxicity of Peptide A-8R ([1]; Peptide A-8R at 10 and 25 µM, P<0.04): enhanced rather than relieved the cytotoxicity of Peptide A-8R at 10 and 25 µM

Compound: COc1cc([C@@H]2c3cc4c(cc3[C@@H](O[C@@H]3O[C@@H]5CO[C@@H](C)O[C@H]5[C@H](O)[C@H]3O)[C@H]3COC(=O)[C@H]23)OCO4)cc(OC)c1O [Etoposide, reference compound]
- Caspase 3/7 activity [2]: induced similar levels of Caspase activity as did Peptide A-8R, but only after 24 hrs of treatment

Compound: O=c1cc(N2CCOCC2)oc2c(-c3ccccc3)cccc12 [LY294002, reference compound]
- LNCaP cell proliferation [3]: dramatically repressed LNCaP cell proliferation

Compound: CC(=O)N[C@@H](CS)C(=O)O [NAC, N-acetyl cysteine]
- inhibition of Peptide A-8R-induced DNA damage [4]: completely blocked
- effect of NAC on cells treated with 50 µM Peptide A-8R (DAPI) [5]: had no effect
- NAC rescue of proliferation ([6]; 10 µM Peptide A-8R, Fig. 4B (P<0.04)): able to completely rescue the proliferation
- NAC rescue of proliferation ([6]; 25 µM Peptide A-8R, Fig. 4B (P<0.04)): nearly completely
- NAC rescue of proliferation ([6]; 50 µM Peptide A-8R, Fig. 4B): failed to significantly rescue the growth; also recorded: only marginally rescued
- NAC rescue (discussion) ([6]; 10 and 25 µM Peptide A-8R): strong rescue

Compound: Nc1nc2c(nc(Br)n2[C@@H]2O[C@@H]3COP(=O)(O)O[C@H]3[C@H]2O)c(=O)[nH]1 [Peptide 8-Br-cGMP]
- effect of added agent on Vehicle- or Peptide A-8R-treated cells (cell density) ([1]; MTT, Fig. S1C): had no effect on Vehicle- or Peptide A-8R-treated cells
- rescue of ODQ-treated cells (cell density) ([1]; MTT, ODQ-treated, Fig. S1C): able to partially rescue cells treated with the sGC enzyme inhibitor ODQ

Compound: C[C@]1(O)CC[C@H]2[C@@H]3CCC4=CC(=O)CCC4=C3C=C[C@@]21C [Peptide R1881, reference compound]
- cGMP levels [7]: markedly elevated cGMP levels

Compound: N.N.[Cl][Pt][Cl] [cisplatin]
- tumor cell death by elevating ROS [8]: induce tumor cell death by elevating levels of reactive oxygen species

Compound: COc1cccc2c1C(=O)c1c(O)c3c(c(O)c1C2=O)C[C@@](O)(C(=O)CO)C[C@@H]3O[C@H]1C[C@H](N)[C@H](O)[C@H](C)O1 [doxorubicin]
- tumor cell death by elevating ROS [8]: induce tumor cell death by elevating levels of reactive oxygen species
